# Reference: patent US7192932B1, “Use of immunomodulating agents” (Lauras AS, priority 1997, dated 2007)
# Several values for one entry are separate records, joined by “and”; a condition that tells them apart may be missing. Equal values may be shown once. Entries after “also recorded” stand apart in the source; their conditions may differ. Marks after values point to notes of the source that are not given here.
# Assays:
# Assay type in all cases: cell-based, human
# IL-2 receptor = IL-2 receptor binding in anti-CD3 stimulated T cells (flow cytometry)
# [1] = system: peripheral blood CD3+ T cells; assay: TCR/CD3 (anti-CD3) stimulated T cell proliferation, [3H]-thymidine incorporation
# Experimental: (§1) Human peripheral blood CD3+ T cells were purified by negative selection from 50 ml of heparin-treated blood from normal healthy donors (Ullevaal University Hospital Blood Center, Oslo. Norway) or patients. Briefly, peripheral blood mononuclear cells were isolated by density gradient (Lymphoprep, NycoMed, Oslo, Norway) centrifugation followed by negative selection using monodisperse magnetic beads directly coated with antibodies to CD14 and CD19 and rat anti-mouse IgG beads coated with antibodies to CD56 and a magnet. Magnetic beads were all from Dynal (Oslo, Norway, cat. no. 111.12, 111.04, and 110.11. respectively) whereas anti-CD56 antibody was from Pharmingen (San Diego, Calif., cat. no. 31660.d). All steps were performed at 4° C.
# as §1, with “Peripheral blood” for “Human peripheral blood”, “Center, Oslo,” for “Center, Oslo.”, “selection using,” for “selection using”, “and 110.11,” for “and 110.11.”, “Calif., eat.” for “Calif., cat.”
# Proliferation assays were performed by incubation of 0.75×10^6 CM+ T cells/ml in a 100 μl volume in that-bottom 96-well microtiter plates. Activation was achieved by subsequent addition of monodisperse magnetic beads coated with sheep anti-mouse IgG (Dynal. cat. no. 110.02) at a cell:bead ratio of 1:1 followed by addition of antiCD3 (clone SpvT3b) at a final dilution of 1:125,000 for the experiments shown. The optimal concentration of antibody was titrated carefully in the initial setup and parallel experiments at several different dilutions of antibody was always performed. Proliferation was analyzed by incubating, cells for 72 hours during which [^3H]thymidine was included for the last 16 hours. Cells were washed and harvested onto filters using a Scatron harvester (Suffolk, UK) and subsequently analyzed by β-scintillation counting. cAMP analogs, when used, were added 30 min prior to activation by addition of […] antibodies. 8-CPT-cAMP was from Sigorna (St. Louis, Mo.) and Sp- and Rp-8-Br-cAMPS were from BioLog Life Science Company (Bremen, Germany) and were all dissolved to concentrations of 4 to 10 mM in PBS and concentrations calculated using the extinction coefficients given by the manufacturer.
# CD4+ T lymphocytes = assay: BrdU incorporation (DNA synthesis) by flow cytometry, CD4+ subset
# Experimental: (§2) We next, by flow cytometry analysis of BrdU incorporation, examined anti-CD3 stimulated T lymphocyte DNA synthesis in the presence and absence of Rp-8-Br-cAMPS in subsets of CD4^+ and CD8^+ T lymphocytes in 8 CVI patients with impaired lymphocyte function and 7 controls. In CVI patients there was a significant increase in percent of BrdU^+ CD4^+ T lymphocytes when cAMP antagonist was added to cell culture [55.8 (40.7–77.0)% versus 69.6 (50.5–90.0)%, without and with antagonist, respectively, P<0.03]. In most patients the maximal increase was found at the highest concentration of Rp-8-Br-cAMPS (1000 μM).
# PBMC = assay: anti-CD3 stimulated proliferation of PBMC
# Experimental: Whereas more than 100% increase in anti-CD3 induced lymphocyte proliferation was found in 7 of the CVI patients, 5 of the patients had less than 40% increase in proliferation when the cAMP antagonist was added to cells in vitro.
# IL-2 = IL-2 levels in supernatants from anti-CD3 stimulated T lymphocytes (ELISA)
# Experimental: After 20 h of culture, cellfree supernatants were harvested and stored at −80° C. until analysis. The IL-2 levels in supernatants were determined by an ELISA ([…], Minneapolis, Minn.).
# CD8+ T lymphocytes = assay: BrdU incorporation (DNA synthesis) by flow cytometry, CD8+ subset; settings: CVI patients and controls
# Experimental: as §2
# [2] = median in 7 CVI patients, 1000 μM
# [3] = median in 8 healthy controls, most pronounced effect at 100 μM
structure (smiles),measurement,setting,value
"Nc1ncnc2c1nc(Br)n2C1OC2COP(O)(=S)OC2C1O (stereo not drawn) [Rp-8-Br-cAMPS, Rp-8-Bromo-cAMP-phosphorothioate]",Effect on IL-2 receptor binding,IL-2 receptor; CD4+ lymphocytes from CVI patients,moderate but significant increase
same,Effect on IL-2 receptor binding,IL-2 receptor; cells from healthy controls,No such increase
same,Proliferation level relative to levels in healthy controls,[1]; CVI patients' T cells with Rp-8-Br-cAMPS,~25%
same,IL-2 concentration with enhancing effect comparable to that of cAMP antagonist,"[1]; CVI patients, FIG. 7",~15 ng/mL
same,Combined enhancing effects of Rp-8-Br-cAMPS and IL-2 on T lymphocyte proliferation,"[1]; CVI patients, 1000 μM Rp-8-Br-cAMPS with IL-2",additive
same,Increase in proliferation by Rp-8-Br-cAMPS Fold increase compared to untreated,"[1]; T cells from HIV+ asymptomatic patients, n = 8, median (25 to 75% range)",1.50(1.29–1.73)^b fold
same,Increase in proliferation by Rp-8-Br-cAMPS Fold increase compared to untreated,"[1]; T cells from HIV+ symptomatic patients, n = 10, median (25 to 75% range)",1.62(1.48–2.00)^w fold
same,Increase in TCR/CD3-induced proliferation by antagonist alone,"[1]; T cells from HIV-infected patients, at higher concentrations, FIG. 3D",more than 2 fold
same,Reversal of Sp-8-Br-cAMPS inhibition of proliferation by complementary antagonist,"[1]; T cells from a HIV-infected patient, FIG. 3C",further increased the proliferation above the levels in untreated cells
same,Reversal of Sp-8-Br-cAMPS inhibition of proliferation by complementary antagonist,"[1]; T cells from normal blood donors / healthy controls, increasing concentrations",almost completely reversed
same,Increase in proliferation by Rp-8-Br-cAMPS Fold increase compared to untreated,"[1]; T cells from normal controls, n = 8, median (25 to 75% range)",1.01(0.93–1.14) fold
same,Increase in proliferation by Rp-8-Br-cAMPS Fold increase compared to untreated,"[1]; T cells from patients on triple combination therapy, n = 9, median (25 to 75% range)",1.53(1.11–1.77)^o fold
same,Increase in proliferation by Rp-8-Br-cAMPS (fold increase),[1]; T cells of individual CVI patients #1-#7,1.73 fold and 2.10 fold and 1.87 fold and 1.34 fold and 1.37 fold and 2.45 fold and 3.67 fold
same,Increase in proliferation by Rp-8-Br-cAMPS Fold increase compared to untreated,[1]; T cells of individual HIV-infected patients #1-#18 without protease inhibitor therapy (Table 2a),2.81 fold and 2.02 fold and 2.73 fold and 1.48 fold and 1.77 fold and 1.96 fold and 1.5 fold and 1.79 fold and 1.74 fold and 1.3 fold and 1.49 fold and 1.43 fold and 1.46 fold and 1.67 fold and 1.6 fold and 1.27 fold and 1.39 fold and 1.16 fold
same,Increase in proliferation by Rp-8-Br-cAMPS Fold increase compared to untreated,[1]; T cells of individual patients #1-#9 receiving highly active antiretroviral therapy (Table 2b),2.79 fold and 2.65 fold and 1.77 fold (2×) and 1.53 fold and 1.04 fold and 1.52 fold and 0.98 fold and 1.11 fold
same,Increase in proliferation by Rp-8-Br-cAMPS (fold increase),[1]; median in 7 CVI patients,1.87^+ fold
same,Increase in proliferation by Rp-8-Br-cAMPS (fold increase),[1]; median in 8 healthy controls,1.01 fold
same,Effect of antagonist alone on stimulated proliferation,[1]; normal T cells / healthy controls,No increased T cell proliferation; also recorded: did not alter proliferation; also recorded: did not further enhance T cell proliferation
same,Increase in anti-CD3 stimulated proliferation,"[1]; purified T cells, 3 of 7 CVI patients",> 100%
same,percent of BrdU+ CD4+ T lymphocytes,"CD4+ T lymphocytes; 8 CVI patients, with antagonist (without: 55.8 (40.7–77.0)%), maximal mostly at 1000 μM",69.6 (50.5–90.0) %
same,Effect on DNA synthesis in CD4+ lymphocytes,CD4+ T lymphocytes; healthy controls,No effect
same,Increase in anti-CD3 induced lymphocyte proliferation,PBMC; 5 of the 20 CVI patients,less than 40%
same,Increase in anti-CD3 induced lymphocyte proliferation,PBMC; 7 of the 20 CVI patients,more than 100%
same,Effect on anti-CD3 stimulated lymphocyte proliferation,PBMC; CVI group,significant and concentration-dependent improvement
same,Effect on anti-CD3 stimulated lymphocyte proliferation,PBMC; normal blood donors,did not significantly alter proliferation
same,Effect on IL-2 levels in supernatants,IL-2; T lymphocytes from CVI patients,marked and concentration-dependent increase
same,Increase in IL-2 level by Rp-8-Br-cAMPS (fold increase),"IL-2; individual CVI patients #1-#7, 1000 μM, 20 h culture",4.50 fold and 4.37 fold and 2.66 fold and 2.49 fold and 2.34 fold and 1.89 fold and 1.77 fold
same,Highest IL-2 level when adding Rp-8-Br-cAMPS,"IL-2; individual CVI patients #1-#7, highest at 1000 μM, 20 h culture",144 pg/mL and 284 pg/mL and 210 pg/mL and 249 pg/mL and 262 pg/mL and 246 pg/mL and 232 pg/mL
same,Highest IL-2 level when adding Rp-8-Br-cAMPS,IL-2; [2],246^+ pg/mL
same,Increase in IL-2 level by Rp-8-Br-cAMPS (fold increase),IL-2; [2],2.50^+ fold
same,Highest IL-2 level when adding Rp-8-Br-cAMPS,IL-2; [3],799 pg/mL
same,Increase in IL-2 level by Rp-8-Br-cAMPS (fold increase),IL-2; [3],1.28 fold
same,Change in percent of BrdU+ CD8+ cells,CD8+ T lymphocytes,no significant increase
